Measured values as given in patent US10077436B2, “Beta-glucosidase enzymes for increased biomass saccharification” (Edeniq, Inc., priority 2013, dated 2018).

Biological target: T1, Aspergillus niger beta-glucosidase (CAB75696.1, SEQ ID NO:2) improved variant yEdQ885-BG (Aspergillus niger, UniProt Q9P8F4, Y363C/Y375F/Y610F)
T1 construct: strain yEdQ885, BG acid/base mutant #8
T1 sequence (Q9P8F4 20-860 Y363C/Y375F/Y610F): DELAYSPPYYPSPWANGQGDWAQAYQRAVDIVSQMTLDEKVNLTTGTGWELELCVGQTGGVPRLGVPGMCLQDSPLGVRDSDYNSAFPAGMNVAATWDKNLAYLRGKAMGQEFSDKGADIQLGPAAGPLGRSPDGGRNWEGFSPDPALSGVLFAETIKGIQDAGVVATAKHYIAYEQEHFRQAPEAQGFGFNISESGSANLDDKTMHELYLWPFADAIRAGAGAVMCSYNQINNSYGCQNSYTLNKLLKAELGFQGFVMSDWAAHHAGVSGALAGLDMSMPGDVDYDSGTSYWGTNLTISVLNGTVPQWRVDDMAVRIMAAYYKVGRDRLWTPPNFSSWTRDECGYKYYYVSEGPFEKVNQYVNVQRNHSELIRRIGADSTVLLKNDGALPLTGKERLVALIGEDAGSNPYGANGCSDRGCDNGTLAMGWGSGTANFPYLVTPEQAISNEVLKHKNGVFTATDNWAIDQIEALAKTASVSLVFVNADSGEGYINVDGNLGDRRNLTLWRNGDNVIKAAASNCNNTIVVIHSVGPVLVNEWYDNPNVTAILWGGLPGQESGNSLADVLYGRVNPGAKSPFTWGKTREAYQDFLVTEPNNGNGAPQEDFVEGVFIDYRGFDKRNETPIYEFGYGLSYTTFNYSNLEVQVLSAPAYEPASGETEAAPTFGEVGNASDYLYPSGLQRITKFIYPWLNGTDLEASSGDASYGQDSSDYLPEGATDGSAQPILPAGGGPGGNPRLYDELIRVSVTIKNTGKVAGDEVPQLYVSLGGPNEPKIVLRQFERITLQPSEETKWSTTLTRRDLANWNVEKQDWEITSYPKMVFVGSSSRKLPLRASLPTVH
Assay: BG kinetics, pNPG hydrolysis assay with glucose as competitive inhibitor, yEdQ885-BG
Assay type: biochemical
Text: The beta-glucosidase (BG) gene from Aspergillus niger (Accession #CAB75696.1) was integrated into the TR3 yeast background at the T4U3 genomic site.
High resolution enzyme assays and kinetic testing comparing the beta-glucosidases described herein and commercial enzyme preparations were pursued to more clearly quantify differences in mutant BG enzymes compared to the wild type BG enzyme. Based on data presented herein, BG mutant YEdQ885 was selected for further analysis and compared to the BG activity present in commercial preparations of SP188 (Novozymes) and Accellerase® BG (DuPont) as well as wild type BG. […]
BG activity assay using pNPG is one of the two commonly used standard assays to measure BG activity, which utilizes hydrolysis of p-nitrophenyl-β-D-glucopyranoside (pNPG) by BG into a yellow colored product, p-nitrophenol (pNP), that has a strong absorbance at 405 nm. […] The reaction was then terminated by adding 100 μL of 0.25 M sodium carbonate, and the amount of pNP produced was determined by measuring absorbance at 405 nm using a predetermined calibration curve. […]
To determine the kinetic properties, a competitive inhibition mechanism was hypothesized as proposed in the literature (Chauve et al, 2010; Krogh et al, 2010). […] The turnover number, Kcat, can be calculated by Equation (2), where [Et] is the total amount of enzyme. […]

OC[C@H]1OC(O)[C@H](O)[C@@H](O)[C@@H]1O (some centres unmarked) [glucose]
Ki: 2190 ± 100 µM | Km/Ki (inhibitor influence, Km for pNPG / Ki for glucose, pH 5.0, 50° C.): 0.29
